In patent US8551722B2, “Time-course measurement of enzymatic activity corrected for impacts of disturbances relating to the reaction of the enzyme with a substrate” (Synapse B.V., priority 2008, dated 2013):
One block for each compound: values may come before it. Residues, ends and D or L forms follow the SMILES beside them. *: point of attachment. AMC = Cc1cc(=O)oc2cc(N*)ccc12; Cbz = O=C(OCc1ccccc1)*; Bz = O=C(c1ccccc1)*

How the values were obtained:
Assay type in all cases: biochemical
thrombin [1] = target: T1, thrombin (Homo sapiens, UniProt P00734); experiment: Km of chromogenic thrombin substrates, obtained in buffer; conditions: obtained in buffer and not in plasma
From the text: (NB: The Km values have been obtained in buffer and not in plasma but any value of Km between 0.5 and 2 times the present one would have allowed similar conclusions as to the suitability in thrombingenration experiments)

thrombin [2] = target: T1, thrombin; experiment: Diagnostic plot (dOD/dt against OD) of chromogenic substrates at fixed thrombin activity, to judge use in thrombin generation measurement
Experimental: A suitable chromogenic substrate, i.e. a substrate from which a chromogenic group is split when acted upon by the enzyme to be measured (thrombin, plasmin etc), is added to the reaction mixture. Unless otherwise indicated, for thrombin generation, this mixture consists of four parts of defibrinated plasma, one part of trigger solution and one part of start solution. The reactions can be carried out in a spectrophotometer cuvette, a 96 well plate to be read in a photometric well-plate reader or in a laboratory automaton as e.g. the Cobas Bio and Cobas Fara centrifugal analysers (F. Hoffmann-La Roche, Basel, Switzerland). In short in any device capable of measuring the optical density at 405 nm at 30 s intervals during 10 to 30 min.
Typically 80 μL of defibrinated plasma with 20 μL of rTF without Ca2+ are incubated at 37° C., during a time sufficient for temperature equilibration. Thrombin generation is started by adding 20 μL of a pre-warmed start solution containing 100 mM CaCl2 and 3 mM substrate. After the start of the reaction the optical density at 405 nm is recorded at intervals of maximally 30 s for the time required (≧15 min). Depending upon the measuring device a multiple of the volumes can be used.
This amount is determined by the maximal enzyme potential (η) that to be expected in the experiments. […] In the experiment to obtain the diagnostic plot the enzyme concentration (E) is constant and known. So the enzyme potential (η) is known and can be rendered In the diagnostic plot (curved thin lines in FIG. 8).
In this table η indicates the enzyme potential that is to be expected in the thrombingeneration experiment and limit indicates the limit of enzyme potential that can be measured with the indicated substrate at the indicated concentration.
In FIG. 8 it is seen that straight lines fit through the data over the whole range of ODs measured for three of the four substrates tested. For one (S2238) the straight line fits only up to mOD˜650.

thrombin [3] = target: T1, thrombin; experiment: Diagnostic plot of fluorogenic substrates measured in bulk fluid, to judge use in thrombin generation measurement; set-up: from tissue; host or cells: blood plasma of healthy human donors; conditions: 1 mM substrate, judged from the diagnostic plot
Experimental: The development of fluorescence intensity from aminomethylcoumarine (AMC) is typically measured in a 96-well plate fluorometer (Ascent reader, Thermolabsystems OY, Helsinki Finland) equipped with a 390/460 filter set (excitation/emission) and a dispenser. Immulon 2HB, round-bottom 96-well plates (Dynex) are used. Minimally four readings are done per minute and experiments are carried out in quadruplicate unless otherwise indicated.
To each well, 80 μl of plasma is added. Wells in which TG is measured receive 20 μl of buffer, containing the trigger but no Ca^2+.
Wells in which constant thrombin-like activity is to be measured receive 20 μl of the α2M-thrombin solution at the required concentration as indicated. For PPP, the trigger is 30 pM of recombinant tissue factor (TF) and 24 μM phosphatidyl-serine/phosphatidyl-choline/phosphatidyl-ethanolamine vesicles in Hepes-buffered saline. For PRP the trigger is 20 μl of 3 pM of rTF without added PL.
The plate is placed in the fluorometer and allowed to warm to 37° C. (minimally 15 min). The dispenser of the fluorometer is flushed with warm 100 mM CaCl2 solution, emptied, and then flushed with a prewarmed (37° C.) solution of the substrate in Hepes buffer with 60 g/L bovine serum albumin (FluCa). At the start of the experiment, the instrument dispenses 20 μl of FluCa to all the wells to be measured, registers this as zero time, shakes them for 10 s and starts reading.
A similar approach as that of example 4 can be applied to fluorogenic substrates. The substrates, previously described in ref [35] were, from left to right are BZ-Phe-Val-Arg-AMC, Z-Gly-Pro-Arg-AMC and Z-Pro-Arg-AMC, all tested at a concentration of 1 mM in the setup described under methods.
The scaling factor necessary to convert the arbitrary dF/dt values into nM thrombin is derived from the measurement of the amidolytic activity on a thrombin substrate of the material remaining after thrombin generation is over, as in example 3.

[4] = S 100 μM, E 0.4 nM (S2238), 250 nM (MSC), 300 nM (SQ68)
[5] = S 50 μM, E 250 nM (MSC), 300 nM (SQ68)
[6] = S 150 μM, E 250 nM (MSC), 300 nM (SQ68)

Km (thrombin [1]): 10 µM | OD up to which the straight line fits the diagnostic plot (thrombin [2]; FIG. 8): ~650 mOD | η (enzyme potential to be expected in the thrombin generation experiment) (thrombin [2]; S 100 μM): 11 µM·min | limit (limit of enzyme potential that can be measured with the substrate at the indicated concentration) (thrombin [2]; [4]): 0.014 nM·min | enzyme potential read from the plot at the OD where the straight line stops fitting (thrombin [2]; at mOD ~650): ~12.5 nM·min | ETP to be measured in the presence of this substrate (thrombin [2]; due to tight binding and inhibition of natural antithrombins): 11000 nM·min
Compound: NC(N)=NCCC[C@H](NC(=O)[C@@H]1CCCCN1C(=O)[C@H](N)Cc1ccccc1)C(=O)Nc1ccc([N+](=O)[O-])cc1 [S2238, HD-Phe-Pip-Arg-pNA]
suitability for the measurement of thrombin generation (chromogenic substrates) (thrombin [2]; judged from the diagnostic plot): unsuitable for the measurement of thrombin generation

Compound: Cc1cc(=O)oc2cc(NC(=O)[C@H](CCCN=C(N)N)NC(=O)[C@@H]3CCCN3C(=O)CNC(=O)OCc3ccccc3)ccc12 [Z-Gly-Pro-Arg-AMC] (Cbz-Gly-Pro-Arg-{AMC})
suitability for the measurement of thrombin generation (fluorogenic substrates) (thrombin [3]): turnover number that is so high as to have the substrate consumed before thrombin generation is over

Km (thrombin [1]): 866 µM | η (enzyme potential to be expected in the thrombin generation experiment) (thrombin [2]; S 500 μM): 1.58 µM·min | limit (limit of enzyme potential that can be measured with the substrate at the indicated concentration) (thrombin [2]; S 500 μM, E 50 nM): >2 nM·min
Compound: DEMZ-Gly-Arg-pNA

Compound: COC(=O)CC(=O)NC(C)(C)C(=O)NC(CCCNC(=N)N)C(=O)Nc1ccc([N+](=O)[O-])cc1.Cl (stereo not drawn) [SQ68, Malonyl-α-aminoisobutyryl-arginine para-nitroanilide methyl ester-HCl]
Km (thrombin [1]): 830 µM | η (enzyme potential to be expected in the thrombin generation experiment) (thrombin [2]; S 50 μM): 1.06 µM·min | limit (limit of enzyme potential that can be measured with the substrate at the indicated concentration) (thrombin [2]; [5]): >30 nM·min | η (enzyme potential to be expected in the thrombin generation experiment) (thrombin [2]; S 100 μM): 1.12 µM·min | limit (limit of enzyme potential that can be measured with the substrate at the indicated concentration) (thrombin [2]; [4]): >30 nM·min | η (enzyme potential to be expected in the thrombin generation experiment) (thrombin [2]; S 150 μM): 1.18 µM·min | limit (limit of enzyme potential that can be measured with the substrate at the indicated concentration) (thrombin [2]; [6]): >30 nM·min

Compound: Cc1cc(=O)oc2cc(NC(=O)C(CCCN=C(N)N)NC(=O)C3CCCN3C(=O)OCc3ccccc3)ccc12 (stereo not drawn) [Z-Pro-Arg-AMC] (Cbz-Pro-Arg-{AMC}; configuration not given here)
suitability for the measurement of thrombin generation (fluorogenic substrates) (thrombin [3]): can be used for the measurement of thrombin generation

Km (thrombin [1]): 882 µM | η (enzyme potential to be expected in the thrombin generation experiment) (thrombin [2]; S 50 μM): 1.06 µM·min | limit (limit of enzyme potential that can be measured with the substrate at the indicated concentration) (thrombin [2]; [5]): >15 nM·min | η (enzyme potential to be expected in the thrombin generation experiment) (thrombin [2]; S 100 μM): 1.11 µM·min | limit (limit of enzyme potential that can be measured with the substrate at the indicated concentration) (thrombin [2]; [4]): >15 nM·min | η (enzyme potential to be expected in the thrombin generation experiment) (thrombin [2]; S 150 μM): 1.17 µM·min | limit (limit of enzyme potential that can be measured with the substrate at the indicated concentration) (thrombin [2]; [6]): >15 nM·min
Compound: CC(C)C(NC(=O)OCCS(C)(=O)=O)C(=O)NC(CCCN=C(N)N)C(=O)Nc1ccc([N+](=O)[O-])cc1 (stereo not drawn) [MSC, Msc-Val-Arg-pNA]

Compound: Cc1cc(=O)oc2cc(NC(=O)[C@H](CCCN=C(N)N)NC(=O)[C@@H](NC(=O)[C@H](Cc3ccccc3)NC(=O)c3ccccc3)C(C)C)ccc12 [BZ-Phe-Val-Arg-AMC] (Bz-Phe-Val-Arg-{AMC})
suitability for the measurement of thrombin generation (fluorogenic substrates) (thrombin [3]): can be used for the measurement of thrombin generation
